Consider two molecules from patent US20240082285A1 (priority 2022, published 2024).

A word on the inhibition: it is the percentage by which the read-out fell short of the control.

Molecules are shown by their SMILES.

The test system of data set [1] is Wa strain RV. Nature of the data set: Effect against RV adsorption (drug before virus), CCK-8 viral inhibition rate. The format is cell-based, Rotavirus. The conditions noted are these: MA104 cells, 1 μM, 5 μM and 10 μM, compared with ribavirin group. The protocol:
The 96-well culture plate of the MA104 cells that grow to the single layer is added with the drug solution. Each drug solution is repeated with 6 wells, and each well contains 100 μL. An equal volume of ribavirin is added to the positive control group, and only an equal volume of DMEM culture solution (without serum) is added to the normal cell control group and the viral control group. Incubation is conducted at 37° C. and 5% CO2 for 2 h. The drug solution is sucked out. Except the normal cell control group, 100 TCID50 virus is added (the virus acts with 10 μg/mL pancreatin at 37° C. for 30 min), and each well contains 100 μL. Incubation is conducted at 37° C. and 5% CO2 for 2 h. The virus is sucked out, the cell maintenance solution is added, and each well contains 200 μL. Incubation is conducted at 37° C. and 5% CO2 for continuous observation. After culture for 48 h, CCK-8 kit is used for detection. 1/10 volume of CCK-8 solution is added to each well, and incubated in the incubator. After 90 min, the absorbance is detected and recorded at 450 nm wavelength. The experiment is repeated for 3 times. The formula of the viral inhibition rate is:
(§1) {(Adrug group−Avirus group)/(Anormal group−Avirus group)×100%}.

The subject of the next data set is VP6 gene. The data set is described as follows: Gene expression of structural protein VP6 in RV-infected MA104 cells, real-time quantitative PCR. The format is cell-based, Rotavirus. Conditions: 1 μM, 5 M and 10 μM, compared with RV group, most significant at 5 μM. The text has this: The Experimental Method is as Follows: • (1) Extraction and quantification of total RNA; • (2) Primer sequence design; • (3) Reverse transcription reaction; • (4) SYBR Green I fluorescent labeling is used for real-time quantitative PCR detection of expression of VP6 gene.

For a further data set, the system named is MA104 cells. The data set is described as follows: Toxicity of Chebulinic acid to MA104 cells by CCK8 method. The conditions noted are these: 48 h. The class given is cell-based. How it is done:
According to the common drug concentration range of Chebulinic acid, the cytotoxicity pre-experiment is performed between 1 μM and 25 μM in this experiment. The MA104 cells at the logarithmic growth stage are observed under a microscope. The cellular morphology is uniform and full with clear edges, and when the number reaches 80%, digestion, centrifugation and re-suspension are conducted. After further dilution of the suspension, […] is taken on a blood cell counting plate to count and calculate the required cell volume. Then, the cells are laid in a 96-well plate, 100 µL of cell suspension is added to each well, and the cell density is 8×10^4 cells/mL. When the cells adhere to the wall to form a single layer, the drug group is administered, and the normal group is added with an equal volume of DMEM (without serum). After incubation for 48 h, the cytotoxicity of Chebulinic acid is detected by CCK8 reagent. 1/10 volume of CCK8 solution is added to each well and incubated in an incubator. After 90 min, the absorbance is detected and recorded under the condition of oscillation for 10 s and at 450 nm wavelength. The formula for the relative survival rate of the cells is:
{(Axpenmentai group−Ablank)/(Acontrol group−Ablaimk)×100%}.
For orientation: Tetrazolium assays rely on reduction of a dye to a coloured formazan, in cell work by metabolically active cells.

The subject of data set [2] is Wa strain RV. Nature of the data set: Direct killing effect on RV (drug mixed with virus), CCK-8 viral inhibition rate. The format is cell-based, Rotavirus. The conditions noted are these: MA104 cells, 100 TCID50 virus, 48 h; inhibition rate lower than ribavirin group. How it is done: The drug is mixed with 100 TCID50 virus solution (the virus acts with 10 μg/mL pancreatin for 30 min) at an equal volume for 2 h. After the cells are washed twice with PBS, the cells are added to the 96-well culture plate of the MA104 cells that grow to the single layer. In the positive control group, the same operation as above is conducted for ribavirin and RV, and only an equal volume of DMEM (without serum) is added to the normal cell control group and the viral control group. Incubation is conducted at 37° C. and 5% CO2 for 2 h. Then, the mixed solution is sucked out, the cell maintenance solution is added, and each well contains 100 μL. Incubation is conducted at 37° C. and 5% CO2 for continuous observation. After culture for 48 h, CCK-8 kit is used for detection. 1/10 volume of CCK-8 solution is added to each well, and incubated in the incubator. After 90 min, the absorbance is detected and recorded at 450 nm wavelength. The viral inhibition rate of the drug is calculated, and the experiment is repeated for 3 times. The formula of the viral inhibition rate is:
as §1

Data set [3] relates to Wa strain RV. Nature of the data set: Effect against RV synthesis (drug after virus), CCK-8 viral inhibition rate. The format is cell-based, Rotavirus. The conditions noted are these: 48 h; for effect of synthesis inhibition on RV: MA104-2 cells, 100 TCID50 virus. The protocol: 100 TCID50 virus solution (the virus acts with 10 μg/mL pancreatin for 30 min) is added to the 96-well culture plate of the MA104-2 cells that grow to the single layer, and each well contains 100 μL. The cells have been washed twice with PBS. Normal cell control is set, and added with an equal volume of DMEM. Incubation is conducted at 37° C. and 5% CO2 for 2 h. Then, the virus solution is sucked out and added into different concentrations of drug solution and ribavirin respectively, and each well contains 100 μL. Virus control is set. Only the cell maintenance solution is added, and each well contains 100 μL. Incubation is conducted at 37° C. and 5% CO2 for continuous observation. After continuous culture for 48 h, CCK-8 kit is used for detection. 1/10 volume of CCK-8 solution is added to each well, and incubated in the incubator. After 90 min, the absorbance is detected and recorded at 450 nm wavelength. The viral inhibition rate of the drug is calculated, and the experiment is repeated for 3 times. The formula of the viral inhibition rate is:
as §1

[4] abbreviates: Rotavirus, read-out: anti-RV inhibition rate (synthesis).

Consider `O=C(O)C[C@@H]1C(=O)O[C@H]2[C@H](OC(=O)c3cc(O)c(O)c(O)c3)[C@@H](OC(=O)c3cc(O)c(O)c4c3[C@H]1[C@H](O)C(=O)O4)[C@H](OC(=O)c1cc(O)c(O)c(O)c1)O[C@@H]2COC(=O)c1cc(O)c(O)c(O)c1` [Chebulinic acid], for which, in the data set with Wa strain RV [1], the anti-RV adsorption effect result was “no obvious anti-RV adsorption effect”. For the same molecule, the VP6 expression entry in the data set with VP6 gene is reported as “significantly decreased”. In addition, the “drug toxicity to the cells” value with MA104 cells (1 μM to 10 μM) is “no drug toxicity”. In the data set with MA104 cells (Chebulinic acid 1 μM to 10 μM), the average survival rate result is given as “above 95%”. Also, the “direct killing effect on RV” value with Wa strain RV [2] is “no obvious direct killing effect”. For the same molecule, the “effect of synthesis inhibition on RV” value in the data set with Wa strain RV [3] is recorded as “obvious effect of synthesis inhibition”. In addition, in the data set on Wa strain RV [3] (setting [4]), the inhibition at 1 µM was determined as 80%, the inhibition at 5 µM was 75.3% and the inhibition at 10 µM is 61.9%.
Consider `NC(=O)c1ncn([C@@H]2O[C@H](CO)[C@@H](O)[C@H]2O)n1` [ribavirin, reference compound], for which, in the data set on Wa strain RV [3], the “effect of synthesis inhibition on RV” value is “obvious effect of synthesis inhibition”.
